Measurements from patent publication US20230183193A1, “4-DIFLUOROMETHYL BENZOYL AMIDES WITH HERBICIDAL ACTION” (BAYER CROPSCIENCE AKTIENGESELLSCHAFT, priority 2017, published 2023).

What was measured:
Type in all cases: in vivo
Setaria viridis [1] = test: Pre-emergence herbicidal action, SETVI; settings: dosage 320 g/ha, scored visually after 3 weeks vs untreated controls
Procedure, shortened: (§1)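 Percent herbicidal activity rated by eye 3 weeks after pre-emergence soil-surface application, compared with untreated pots. Seeds sat under sandy loam; sprays carried 0.2% wetting agent.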

Pharbitis purpureum = test: Post-emergence herbicidal action, PHBPU; settings: 80 g/ha, Table D
Procedure, shortened: (§2)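 Greenhouse-grown weeds in sandy loam, treated at the one-leaf stage 2 to 3 weeks after sowing with WP or EC formulations sprayed as aqueous suspension/emulsion at 600 to […] water plus 0.2% wetting agent. Visual scoring after about 3 weeks versus untreated controls, 0% (like control) to 100% (plants dead).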

Stellaria media [2] = test: Pre-emergence herbicidal action, STEME; settings: dosage 320 g/ha, scored visually after 3 weeks vs untreated controls
Procedure, shortened: as §1

Viola tricolor [3] = test: Pre-emergence herbicidal action, VIOTR; settings: dosage 320 g/ha, scored visually after 3 weeks vs untreated controls
Procedure, shortened: as §1

Avena fatua [4] = test: Pre-emergence herbicidal action, AVEFA; settings: dosage 320 g/ha, scored visually after 3 weeks vs untreated controls
Procedure, shortened: as §1

ECHCG = test: Post-emergence herbicidal action, ECHCG; settings: 80 g/ha, Table C
Procedure, shortened: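 Weed and crop plants grown in sandy loam in the greenhouse, treated at the one-leaf stage 2–3 weeks after sowing. Damage scored visually after about 3 weeks vs untreated controls (0% = control, 100% = dead).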

Alopecurus myosuroides [5] = test: Post-emergence herbicidal action, ALOMY; settings: 80 g/ha, Table C
Procedure, shortened: as §2

Viola tricolor [6] = test: Post-emergence herbicidal action, VIOTR; settings: 80 g/ha, Table D
Procedure, shortened: as §2

Cyperus serotinus = test: Pre-emergence herbicidal action, CYPES; settings: dosage 320 g/ha, scored visually after 3 weeks vs untreated controls
Procedure, shortened: as §1

Amaranthus retroflexus [7] = test: Post-emergence herbicidal action, AMARE; settings: 80 g/ha, Table D
Procedure, shortened: as §2

Abutilon theophrasti [8] = test: Post-emergence herbicidal action, ABUTH; settings: 80 g/ha, Table D
Procedure, shortened: as §2

Amaranthus retroflexus [9] = test: Pre-emergence herbicidal action, AMARE; settings: dosage 320 g/ha, scored visually after 3 weeks vs untreated controls
Procedure, shortened: as §1

Abutilon theophrasti [10] = test: Pre-emergence herbicidal action, ABUTH; settings: dosage 320 g/ha, scored visually after 3 weeks vs untreated controls
Procedure, shortened: as §1

Alopecurus myosuroides [11] = test: Pre-emergence herbicidal action, ALOMY; settings: dosage 320 g/ha, scored visually after 3 weeks vs untreated controls
Procedure, shortened: as §1

Matricaria inodora = test: Pre-emergence herbicidal action, MATIN; settings: dosage 320 g/ha, scored visually after 3 weeks vs untreated controls
Procedure, shortened: as §1

Setaria viridis [12] = test: Post-emergence herbicidal action, SETVI; settings: 80 g/ha, Table C
Procedure, shortened: as §2

Avena fatua [13] = test: Post-emergence herbicidal action, AVEFA; settings: 80 g/ha, Table C
Procedure, shortened: as §2

Stellaria media [14] = test: Post-emergence herbicidal action, STEME; settings: 80 g/ha, Table D
Procedure, shortened: as §2

| Structure (SMILES) | herbicidal activity SETVI (Setaria viridis [1]) | Herbicidal activity PHBPU (Pharbitis purpureum) | Herbicidal activity STEME (Stellaria media [2]) | herbicidal activity VIOTR (Viola tricolor [3]) | herbicidal activity AVEFA (Avena fatua [4]) | Herbicidal activity ECHCG (ECHCG) | herbicidal activity ALOMY (Alopecurus myosuroides [5]) | herbicidal activity VIOTR (Viola tricolor [6]) | herbicidal activity CYPES (Cyperus serotinus) | herbicidal activity AMARE (Amaranthus retroflexus [7]) | herbicidal activity ABUTH (Abutilon theophrasti [8]) | herbicidal activity AMARE (Amaranthus retroflexus [9]) | herbicidal activity ABUTH (Abutilon theophrasti [10]) | herbicidal activity ALOMY (Alopecurus myosuroides [11]) | herbicidal activity MATIN (Matricaria inodora) | herbicidal activity SETVI (Setaria viridis [12]) | herbicidal activity AVEFA (Avena fatua [13]) | Herbicidal activity STEME (Stellaria media [14]) |
| --- | --- | --- | --- | --- | --- | --- | --- | --- | --- | --- | --- | --- | --- | --- | --- | --- | --- | --- |
| Cn1nnnc1NC(=O)c1ccc(C(F)F)c(S(C)(=O)=O)c1C1CC1 [Example 1-27] | 100% | 90% | 100% | 100% | 100% | 100% | 100% | 100% | 100% | 100% | 100% | 100% | 100% | 100% | 100% | 100% | 100% | 100% |
| CCSc1c(C(F)F)ccc(C(=O)Nc2nnnn2CC)c1C1CC1 [Example 2-28] | 100% | 100% | 100% | 100% | 100% | 100% | 90% | 100% | 100% | 100% | 100% | 100% | 100% | 100% | 100% | 100% | 100% | 100% |
| CCc1c(C(=O)Nc2nnnn2CC)ccc(C(F)F)c1[S+]([O-])CC (stereo not drawn) [Example 2-17] | 100% | 100% | 100% | 100% | 100% | 90% | 90% | 100% | 100% | 100% | 100% | 100% | 100% | 100% | 100% | 90% | 100% | 100% |
| CSc1c(C(F)F)ccc(C(=O)Nc2nnc(C)o2)c1Cl [Example 7-47] | 100% | 90% | 90% | 100% | 90% | 100% | 80% | 100% | 80% | 90% | 90% | 100% | 100% | 90% | 100% | 100% | 100% | 100% |
| CCSc1c(C(F)F)ccc(C(=O)Nc2ncnn2C)c1Cl [Example 4-52] | 100% | 100% | 100% | 100% | 100% | 100% | 90% | 90% | 80% | 100% | 90% | 100% | 100% | 100% | 100% | 100% | 100% | 90% |
| Cn1nnnc1NC(=O)c1ccc(C(F)F)c(S(C)(=O)=O)c1F [Example 1-39] | 100% | 100% | 100% | 100% | 100% | 90% | 90% | 100% | 90% | 100% | 90% | 100% | 100% | 90% | 100% | 100% | 80% | 100% |
| CCSc1c(C(F)F)ccc(C(=O)Nc2nnnn2C)c1C [Example 1-4] | 100% | 100% | 100% | 100% | 100% | 100% | 90% | 100% | 80% | 100% | 100% | 100% | 100% | 100% | 100% | 100% | 100% | 100% |
| CCn1nnnc1NC(=O)c1ccc(C(F)F)c([S+]([O-])CC)c1C (stereo not drawn) [Example 2-5] | 100% | 90% | 90% | 100% | 90% | 100% | 90% | 100% | 80% | 100% | 100% | 100% | 100% | 100% | 100% | 100% | 100% | 100% |
| CCn1nnnc1NC(=O)c1ccc(C(F)F)c(SC)c1Br [Example 2-61] | 100% | 100% | 100% | 100% | 100% | 90% | 90% | 100% | 100% | 90% | 100% | 100% | 100% | 100% | 100% | 90% | 90% | 100% |
| CCSc1c(C(F)F)ccc(C(=O)Nc2nnnn2C)c1F [Example 1-40] | 100% | 100% | 100% | 100% | 90% | 100% | 90% | 90% | 100% | 100% | 100% | 100% | 100% | 100% | 100% | 100% | 80% | 90% |
| CCc1c(C(=O)Nc2nnnn2C)ccc(C(F)F)c1S(=O)(=O)CC [Example 1-18] | 100% | 90% | 100% | 100% | 100% | 90% | 90% | 100% | 100% | 100% | 100% | 100% | 100% | 100% | 100% | 100% | 100% | 100% |
